# Data from article PMC11024869, “The activity of antimicrobial peptoids against multidrug-resistant ocular pathogens” (Contact lens & anterior eye : the journal of the British …, 2024).
# Non-standard residues stand in square brackets, D forms with d. Residues, ends and D or L forms follow the SMILES beside them. Nspe = C[C@H](NCC(=O)O)c1ccccc1; Nlys = NCCCCNCC(=O)O
# Legend:
# Format in all cases: cell-based
# [1] = system: Streptococcus pneumoniae SP06; details: SP06, MHB, 24 h 37 °C
# Excerpt: (§3) The S. pneumoniae strains used were SP04, SP06 and SP07 [46] and Streptococcus gallolyticus SV06 (all isolated from eyes of contact lens wearers during adverse events); P. aeruginosa PAO1 (which was originally isolated from a wound, and is an invasive strain containing the gene exoS) as well as isolates from microbial keratitis, PA 235 (invasive strain containing exoS), PA216 (a cytotoxic strain containing exoU), PA219 (cytotoxic strain containing exoU), PA 233 (cytotoxic strain containing exoU), with various susceptibilities to antibiotics were also used [14]. C. albicans ATCC 10231, a yeast, isolated from case of a human bronchomycosis, was also evaluated.
# (§4) The peptoids’ minimum inhibitory and bactericidal concentrations (MIC and MBC) were determined using micro broth dilution methods as previously described with slight modifications, [26, 39, 49, 50], and without using acetic acid and bovine serum albumin [39]. Briefly, bacteria or yeast were suspended in Muller Hinton broth (MHB, Oxoid, Thermo Fisher Scientific, Thebarton, SA, Australia) at 0.1 OD660nm, which was equivalent to 1x10^8 colony forming units (CFU) mL^−1. This suspension was further diluted to achieve 5x10^6 CFU mL^−1. The peptoids were diluted in MHB from 250 to 0.24 μg mL^−1 in 96-well polystyrene microplates (COSTAR, Corning Incorporated, New York, NY, USA) [39]. […] This was followed by addition of 100 μL of each microbial suspensions. Wells with only bacteria or the yeast were treated as a negative control, and wells with only MHB medium were treated as a blank. The plates were incubated at 37 °C with shaking at 120 rpm for 24 h. After incubation, the media in each well was serially diluted in phosphate buffered solution and then inoculated onto tryptone soya agar (Oxoid) plates for bacteria, or Sabouraud’s dextrose agar for the yeast, and incubated at 37 °C for 18 hrs. Post incubation, the number of CFUs on the agar plates was counted.
# [2] = system: Staphylococcus aureus SA34; details: SA34, MHB, 24 h 37 °C
# Excerpt: as §3, §4
# [3] = system: Candida albicans ATCC 10231; experiment: MIC/MBC (fungicidal) micro broth dilution; details: ATCC 10231 (yeast); MHB, 24 h 37 °C; ≥99.99 % reduction in CFUs
# Excerpt: as §3, §4
# [4] = system: Staphylococcus aureus SA65; details: SA65, MHB, 24 h 37 °C
# Excerpt: as §3, §4
# [5] = system: Pseudomonas aeruginosa PA216; details: PA216, MHB, 24 h 37 °C
# Excerpt: as §3, §4
# [6] = system: Pseudomonas aeruginosa PA233; details: PA233, MHB, 24 h 37 °C
# Excerpt: All S. aureus strains used were isolated from cases of microbial keratitis (Table 1) with various susceptibilities to antibiotics. The S. pneumoniae strains used were SP04, SP06 and SP07 [46] and Streptococcus gallolyticus SV06 (all isolated from eyes of contact lens wearers during adverse events); P. aeruginosa PAO1 (which was originally isolated from a wound, and is an invasive strain containing the gene exoS) as well as isolates from microbial keratitis, PA 235 (invasive strain containing exoS), PA216 (a cytotoxic strain containing exoU), PA219 (cytotoxic strain containing exoU), PA 233 (cytotoxic strain containing exoU), with various susceptibilities to antibiotics were also used. C. albicans ATCC 10231, a yeast, isolated from case of a human bronchomycosis, was also evaluated.
# The peptoids’ minimum inhibitory and bactericidal concentrations (MIC and MBC) were determined using micro broth dilution methods as previously described with slight modifications, [26, 39, 49, 50], and without using acetic acid and bovine serum albumin [39]. Briefly, bacteria or yeast were suspended in Muller Hinton broth (MHB, Oxoid, Thermo Fisher Scientific, Thebarton, SA, Australia) at 0.1 OD660nm, which was equivalent to 1x10^8 colony forming units (CFU) mL^−1. This suspension was further diluted to achieve 5x10^6 CFU mL^−1. The peptoids were diluted in MHB from 250 to 0.24 μg mL^−1 in 96-well polystyrene microplates (COSTAR, Corning Incorporated, New York, NY, USA). This range was selected to cover the range of MIC values previously reported for ESKAPE pathogens. This was followed by addition of 100 μL of each microbial suspensions. Wells with only bacteria or the yeast were treated as a negative control, and wells with only MHB medium were treated as a blank. The plates were incubated at 37 °C with shaking at 120 rpm for 24 h. After incubation, the media in each well was serially diluted in phosphate buffered solution and then inoculated onto tryptone soya agar (Oxoid) plates for bacteria, or Sabouraud’s dextrose agar for the yeast, and incubated at 37 °C for 18 hrs. Post incubation, the number of CFUs on the agar plates was counted.
# [7] = system: horse erythrocytes; experiment: In vitro assay for hemolysis, horse blood
# Procedure: (§1) Hemolysis caused by the peptoids was measured using 18 to 20 mL of a horse or human blood collected in EDTA-coated tubes which has been centrifuged at 500×g for 5 min. The supernatant was discarded and the pellet containing the cells were resuspended in PBS to a final volume of 20 mL. This step was repeated five times. After the final wash, the pellet was resuspended in PBS at the ratio of 1:10 (1 mL red blood cell: 9 mL PBS) to yield a final red blood cell (RBC) concentration of approximately 5 × 10^8 cells mL^−1. The concentration of RBCs was confirmed using a hemocytometer. The peptoids (stock concentration 2 mM) were diluted sequentially (two-fold dilutions) in PBS to final concentrations of […]. All the dilutions were subsequently mixed with the RBC suspension at the ratio of 1:1. MilliQ water was used as a positive control and PBS was used as a negative control in this assay. All samples were incubated at 37 °C for 3 h. Following incubation, the tubes were centrifuged at 500 x g for five mins, the supernatants were collected, transferred to wells in a 96 well plate and their optical density was measured at 540 nm. The percentage of hemolysis was calculated by dividing the absorbance of the test sample by the absorbance of the positive control, and multiplying by 100. Data are presented as the hemolysis caused by each dilution of peptoid, and as the concentration of peptoid that caused 10 % or 50 % lysis of red blood cells.
# (§2) The geometric mean is the nth root of the multiplied numbers, where n is the total number of data values. A similar formula was used to calculate the selectivity ratio, but by using the concentration of peptoid that caused 10 % hemolysis.
# [8] = system: Pseudomonas aeruginosa PA235; details: PA235; MHB, 24 h 37 °C; ≥99.99 % reduction in CFUs
# Excerpt: as §3, §4
# [9] = system: Streptococcus pneumoniae SP07; details: SP07, MHB, 24 h 37 °C
# Excerpt: as §3, §4
# [10] = system: human erythrocytes; experiment: In vitro assay for hemolysis, human blood
# Procedure: as §1, §2
# [11] = system: viridans group streptococcus SV06; details: SV06, MHB, 24 h 37 °C
# Excerpt: as §3, §4
# [12] = system: Streptococcus gallolyticus SG04; details: SG04, MHB, 24 h 37 °C
# Excerpt: as §3, §4
# [13] = system: Staphylococcus aureus SA117; details: SA117, MHB, 24 h 37 °C
# Excerpt: as §3, §4
# [14] = system: Pseudomonas aeruginosa PAO1; details: PAO1, MHB
# Excerpt: as §3, §4
# [15] = system: Staphylococcus aureus SA114; details: SA114, MHB, 24 h 37 °C
# Excerpt: as §3, §4
# [16] = system: Streptococcus pneumoniae SP04; details: SP04, MHB, 24 h 37 °C
# Excerpt: as §3, §4
# [17] = system: Staphylococcus aureus SA113; details: SA113, MHB, 24 h 37 °C
# Excerpt: as §3, §4
# [18] = system: Pseudomonas aeruginosa PA219; details: PA219, MHB, 24 h 37 °C
# Excerpt: as §3, §4
compound,measurement,setting,value
C[C@@H](c1ccccc1)N(CC(N)=O)C(=O)CN(C(=O)CN(CCCCN)C(=O)CN(C(=O)CN(C(=O)CN(CCCCN)C(=O)CN(C(=O)CN(C(=O)CN(CCCCN)C(=O)CN(C(=O)CN(C(=O)CNCCCCN)[C@@H](C)c1ccccc1)[C@@H](C)c1ccccc1)[C@@H](C)c1ccccc1)[C@@H](C)c1ccccc1)[C@@H](C)c1ccccc1)[C@@H](C)c1ccccc1)[C@@H](C)c1ccccc1 [TM1] (H-[Nlys][Nspe][Nspe][Nlys][Nspe][Nspe][Nlys][Nspe][Nspe][Nlys][Nspe][Nspe]-NH2),MIC,[1]; ≥90 % reduction in CFUs,3.9 µg/mL
same,MBC,[1]; ≥99.99 % reduction in CFUs,7.8 µg/mL
same,MIC,[2]; ≥90 % reduction in CFUs,7.8 µg/mL
same,MBC,[2]; ≥99.99 % reduction in CFUs,15 µg/mL
same,MBC (minimum fungicidal concentration),[3],3.9(2.2)/3.9(2.2) μg mL^−1
same,MIC,[4]; ≥90 % reduction in CFUs,3.9(2.2)/3.9(2.2) μg mL^−1
same,MBC,[4]; ≥99.99 % reduction in CFUs,3.9(2.2)/3.9(2.2) μg mL^−1
same,MIC,[5]; ≥90 % reduction in CFUs,15 µg/mL
same,MBC,[5]; ≥99.99 % reduction in CFUs,31 µg/mL
same,MIC,[6]; ≥90 % reduction in CFUs,15(8.6)/15(8.6) μg mL^−1
same,MBC,[6]; ≥99.99 % reduction in CFUs,15(8.6)/15(8.6) μg mL^−1
same,Horse HC10,"[7]; concentration causing 10 % lysis of horse red blood cells, PBS, 3 h 37 °C, OD 540 nm",4 µM
same,Horse HC50,"[7]; concentration causing 50 % lysis of horse red blood cells, PBS, 3 h 37 °C, OD 540 nm",45 µM
same,SR horse blood (ratio HC10 to geometric mean MIC),[7]; selectivity ratio,1
same,TI horse blood (ratio HC50 to geometric mean MIC),[7]; therapeutic index,11
same,MBC,[8],31(17)/31(17) μg mL^−1
same,MIC,[9]; ≥90 % reduction in CFUs,15(8.6)/15(8.6) μg mL^−1
same,MBC,[9]; ≥99.99 % reduction in CFUs,15(8.6)/15(8.6) μg mL^−1
same,Human HC10,"[10]; concentration causing 10 % lysis of human red blood cells, PBS, 3 h 37 °C, OD 540 nm",8 µM
same,Human HC50,"[10]; concentration causing 50 % lysis of human red blood cells, PBS, 3 h 37 °C, OD 540 nm",49 µM
same,SR human blood (ratio HC10 to geometric mean MIC),[10]; selectivity ratio,2
same,TI human blood (ratio HC50 to geometric mean MIC),[10]; therapeutic index,12
same,MIC,[11]; ≥90 % reduction in CFUs,3.9 µg/mL
same,MBC,[11]; ≥99.99 % reduction in CFUs,7.8 µg/mL
same,MIC,[12]; ≥90 % reduction in CFUs,3.9 µg/mL
same,MBC,[12]; ≥99.99 % reduction in CFUs,7.8 µg/mL
same,MIC,[13]; ≥90 % reduction in CFUs,7.8 µg/mL
same,MBC,[13]; ≥99.99 % reduction in CFUs,15 µg/mL
same,MIC,"[14]; 5x10^6 CFU mL^−1, 24 h 37 °C, ≥90 % reduction in CFUs",7.8 µg/mL
same,MBC,"[14]; 24 h 37 °C, ≥99.99 % reduction in CFUs",15 µg/mL
same,MIC,[15]; ≥90 % reduction in CFUs,7.8(4.3)/7.8(4.3) μg mL^−1
same,MBC,[15]; ≥99.99 % reduction in CFUs,7.8(4.3)/7.8(4.3) μg mL^−1
same,MIC,[16]; ≥90 % reduction in CFUs,1.9(1.1)/1.9(1.1) μg mL^−1
same,MBC,[16]; ≥99.99 % reduction in CFUs,1.9(1.1)/1.9(1.1) μg mL^−1
same,MIC,[17]; ≥90 % reduction in CFUs,3.9 µg/mL
same,MBC,[17]; ≥99.99 % reduction in CFUs,7.8 µg/mL
same,MIC,[18]; ≥90 % reduction in CFUs,15 µg/mL
same,MBC,[18]; ≥99.99 % reduction in CFUs,31 µg/mL
